Laboratory results: patent US20120027842A1, “TOPICAL FORMULATIONS OF FLAP INHIBITORS FOR ADMINISTRATION TO AN EYE” (Amira Pharmaceuticals, Inc., priority 2008, published 2012)
Each block holds one compound with its values, some of them ahead of it.

How the values were obtained:
[1] = Solubility in 10% beta-hydroxypropyl cyclodextrin (BHPC) in water; type: physicochemical; conditions: Na salt; at 1 mg/mL
Protocol: In one aspect, aqueous ophthalmic solutions that include a FLAP inhibitor compounds were prepared by dissolving a FLAP inhibitor compound in 10% beta-hydroxypropyl cyclodextrin (BHPC) in water. Using this formulation, the following compounds were soluble at 1 mg/mL: Compound A (Na salt), Compound B (Na salt), Compound C (Na salt), Compound I (Na salt), Compound J (Na salt), Compound G (Na salt).

[2] = test system: RSV (Long strain, serotype A); experiment: Mouse model of RSV-infected eye: ocular pathology; type: in vivo, BALB/c mice
Protocol: (§1) A mouse model of respiratory syncytial virus (RSV) eye infection is used to test the effects of ocular application of a FLAP inhibitor compound on RSV-induced ocular immunopathology (Bitko V, et al., J. Virol. 2007; 81(2):783-90; Bitko V, et al., Nat. Med. 2005; 11(1):50-5). Each mouse eye is topically treated with 60 ng of FLAP inhibitor compound or vehicle (sterile saline) in a volume of 2 μl. The FLAP inhibitor compound is instilled 40 min after virus inoculum and then once daily over the entire duration of the protocol (14 days).
Instillation of virus and inhibitor in the eye. Female BALB/c mice, 6 to 8 weeks old, were purchased from Charles River Laboratories. RSV (Long strain, serotype A) was grown on HEp-2 cells and purified on sucrose layers to a concentration of 10^11 PFU (Bitko et al., Nat. Med. 11:50-55, 2005). […]
Ocular pathology. Ocular disease was evaluated with a slit lamp biomicroscope as described previously (Bitko V, et al., J. Virol. 2007; 81(2):783-90) 15; Girgis et al., Invest. […] Pathology was scored on a scale of 0 to 5 as follows: 0=clear eye; 1=slight redness in the corners; 2=moderate redness and injection; 3=conjunctival and corneal injection with ciliary flush; 4=extensive injection, generally associated with some mucus; 5=most extensive injection, associated with mucus. Eyes were examined in a coded fashion with the reader unaware of the treatment given. […]

[3] = test system: CysLTs; experiment: Mouse model of RSV-infected eye: CysLT measurements in eye homogenates (EIA); type: in vivo, BALB/c mice; conditions: topical treatment of RSV-infected mouse eyes, 60 ng/2 μL daily
Protocol: as §1
(§2) Instillation of virus and inhibitor in the eye. Female BALB/c mice, 6 to 8 weeks old, were purchased from Charles River Laboratories. RSV (Long strain, serotype A) was grown on HEp-2 cells and purified on sucrose layers to a concentration of 10^11 PFU (Bitko et al., Nat. Med. 11:50-55, 2005). Dilutions were done in phosphate-buffered saline (PBS) immediately before use to a final concentration of 10^4 PFU/2 μL as needed. A similarly diluted sucrose solution was used in sham-infected control mice. Mice were anesthetized by intraperitoneal injection of pentobarbital (50 mg/kg), and virus in 2 μL PBS was dropped into the corneal surface and massaged in with closed eyelids. The day of the inoculation was considered day 0. […]

[4] = test system: RSV; experiment: Mouse model of RSV-infected eye: RSV viral load, RNA and protein in eye and lung; type: in vivo, BALB/c mice; conditions: ocular application to RSV-infected mice
Protocol: as §1
Instillation of virus and inhibitor in the eye. Female BALB/c mice, 6 to 8 weeks old, were purchased from Charles River Laboratories. RSV (Long strain, serotype A) was grown on HEp-2 cells and purified on sucrose layers to a concentration of 10^11 PFU (Bitko et al., Nat. Med. 11:50-55, 2005). Dilutions were done in phosphate-buffered saline (PBS) immediately before use to a final concentration of 10^4 PFU/2 μL as needed. A similarly diluted sucrose solution was used in sham-infected control mice. Mice were anesthetized by intraperitoneal injection of pentobarbital (50 mg/kg), and virus in 2 μL PBS was dropped into the corneal surface and massaged in with closed eyelids. The day of the inoculation was considered day 0. The FLAP inhibitor Compound C was diluted in PBS to 60 ng/2 μL just prior to application of 2 μL 40 minutes after the RSV inoculation on day 0 and then each day.
RSV RNA and protein: RSV is assayed in the ocular tissue on various days using both Western blot and viable virus assay (plaque forming unit; pfu) as described before. […] is quantified by RT-PCR. RSV RNA and protein were measured in the eye and lung (Urnowey et al., BMC Microbiol. 6:26, 2006).
Compound C reduced RSV in the lung.
Infection of an eye eventually transmits into the lung, causing a standard respiratory infection. […] Thus, it is of interest to monitor the lung infection to determine if the ocular application of the FLAP inhibitor compound has any effect on virus replication and quantity of virus in the lung. […]

[5] = test system: IL-4; experiment: Mouse model of RSV-infected eye: Interleukin-4 (IL-4) measurements in eye homogenates; type: in vivo, BALB/c mice; conditions: topical treatment of RSV-infected mouse eyes, 60 ng/2 μL daily
Protocol: as §1, §2

[6] = parameters: species or system BALB/c mice; conditions: mouse, in vivo, 10 mg/kg

- solubility in 10% beta-hydroxypropyl cyclodextrin (BHPC) in water [1]: soluble
Compound: CCC(CC)(Cc1c(SC(C)(C)C)c2cc(OCc3ccc(C)cn3)ccc2n1Cc1ccc(-c2ncc(OC)cn2)cc1)C(=O)O [Compound G, 2-[3-tert-Butylsulfanyl-1-[4-(5-methoxy-pyrimidin-2-yl)-benzyl]-5-(5-methyl-pyridin-2-ylmethoxy)-1H-indol-2-ylmethyl]-2-ethyl-butyric acid]

- solubility in 10% beta-hydroxypropyl cyclodextrin (BHPC) in water [1]: soluble
Compound: CC(=O)N1CCC[C@H]1COc1ccc2c(c1)c(SC(C)(C)C)c(CC(C)(C)C(=O)O)n2Cc1ccc(Cl)cc1 [Compound I, 3-[5-((S)-1-Acetyl-pyrrolidin-2-ylmethoxy)-3-tert-butylsulfanyl-1-(4-chloro-benzyl)-1H-indol-2-yl]-2,2-dimethyl-propionic acid]

- solubility in 10% beta-hydroxypropyl cyclodextrin (BHPC) in water [1]: soluble
Compound: CC(C)(C)Sc1c(CC(C)(C)C(=O)O)n(Cc2ccc(-c3ccc(F)cn3)cc2)c2ccc(OCc3ccccn3)cc12 [Compound J, 3-[3-tert-butylsulfanyl-1-[4-(5-fluoro-pyridin-2-yl)-benzyl]-5-(pyridin-2-ylmethoxy)-1H-indol-2-yl]-2,2-dimethyl-propionic acid]

- Plasma concentration @ trough [6]: <0.01 µM
Compound: CCN(Cc1cc(C(F)(F)F)ccc1-c1cncc(CC(=O)O)c1)C(=O)OCc1ccccc1 [DP2 receptor antagonist]

The next lines start with the compound.

Compound: COc1cnc(-c2ccc(Cn3c(CC(C)(C)C(=O)O)c(SC(C)(C)C)c4cc(OCc5ccc(C)cn5)ccc43)cc2)nc1 [Compound A, 3-[3-tert-Butylsulfanyl-1-[4-(5-methoxy-pyrimidin-2-yl)-benzyl]-5-(5-methyl-pyridin-2-ylmethoxy)-1H-indol-2-yl]-2,2-dimethyl-propionic acid]
- solubility in 10% beta-hydroxypropyl cyclodextrin (BHPC) in water [1]: soluble

Compound: COc1cnc(-c2ccc(Cn3c(CC(C)(C)C(=O)O)c(SC(C)(C)C)c4cc(OCc5cnc(C)cn5)ccc43)cc2)nc1 [Compound B, 3-[3-tert-Butylsulfanyl-1-[4-(5-methoxy-pyrimidin-2-yl)-benzyl]-5-(5-methyl-pyrazin-2-ylmethoxy)-1H-indol-2-yl]-2,2-dimethyl-propionic acid]
- solubility in 10% beta-hydroxypropyl cyclodextrin (BHPC) in water [1]: soluble

Compound: COc1cnc(-c2ccc(Cn3c(CC(C)(C)C(=O)O)c(SC(C)(C)C)c4cc(OC[C@@H]5Cc6ccccc6N5C(C)=O)ccc43)cc2)nc1 [Compound C, 3-{5-((S)-1-Acetyl-2,3-dihydro-1H-indol-2-ylmethoxy)-3-tert-butylsulfanyl-1-[4-(5-methoxy-pyrimidin-2-yl)-benzyl]-1H-indol-2-yl}-2,2-dimethyl-propionic acid]
- gummy residue and mucin build up in infected eyes ([2]; ocular application 60 ng/2 μL per eye daily, day 8): clear of gummy residue and mucin build up
- RSV eye pathology score (scale of 0 to 5) ([2]; ocular application 60 ng/2 μL per eye, 40 min after RSV then daily, days 2-14 after RSV challenge): reduces the pathology score across all observation days
- levels of CysLTs in eye homogenates [3]: reduced
- solubility in 10% beta-hydroxypropyl cyclodextrin (BHPC) in water [1]: soluble
- RSV in the lung [4]: reduced
- RSV mRNA or protein in the eye or the lung [4]: did not increase
- viral load in the eye or the lung [4]: did not increase
- levels of IL-4 in eye homogenates [5]: reduced

Compound: CC(C)(C)Sc1c(CC(C)(C)C(=O)O)n(Cc2ccc(-c3ccc(F)cn3)cc2)c2ccc(OCc3ccc4ccccc4n3)cc12 [Compound F, 3-[3-tert-Butylsulfanyl-1-[4-(5-fluoro-pyridin-2-yl)-benzyl]-5-(quinolin-2-ylmethoxy)-1H-indol-2-yl]-2,2-dimethyl-propionic acid]
- solubility in 10% beta-hydroxypropyl cyclodextrin (BHPC) in water [1]: formed a cloudy solution
